Target: Human PDE4 (PDE4B2 truncated) (Homo sapiens, UniProt Q07343)
Assay: Measurement of Phosphodiesterase 4 (PDE4) inhibition, zinc and barium precipitation method with 3H-cAMP
Type: biochemical
Details: PDE4B2 truncated catalytic domain, 0.3 pM enzyme, 20 min pre-incubation, 30° C. for 6 minutes
Method: Human PDE4 enzymatic activity was assayed using the zinc and barium precipitation method of Saldou, N. et at (1998: Cell Signal, vol 10, No. 6, pp 427-440). The assay was performed in 96-well v-bottom plates (BrandPlates, Wertheim, Germany). PDE4B2 truncated is the catalytic domain including the UCR2 and a portion of the UCR1 domain of PDE4B2 (23.4 mg/mL) from Proteros Biostructures. Final concentration of enzyme in the assay was 0.3 pM. Stocks of the tested compounds were prepared in 100% DMSO at a concentration of 40 mM. The 105-μL reaction volume consisted of 45 mM Tris-HCl, pH 7.5, 12.5 mM MgSO4, 1.5 μM […] (Sigma, St Louis, Mo.) supplemented with 0.15 μM ^3H-cAMP (Perkin Elmer, Waltham, Mass.). Compounds were pre-incubated with enzyme at room temperature for 20 min prior to initiating the reaction by adding substrate (cAMP supplemented with ^3H-cAMP). After incubation at 30° C. for 6 minutes, the reaction was stopped by the addition of 50 μL fresh made 21.5 mM ZnSO4.7H2O (Alfa Aesar, Ward Hill, Mass.) containing 5 mM AMP as a co-precipitant. Total AMP was precipitated by the addition of 50 μL 17.5 mM Ba(OH)2, prepared fresh daily in autoclaved MilliQ water. 180 uL of well-mixed precipitate was transferred and collected by filtration (Millipore Multiscreen; MSFBN6B50). The plates were washed five times with cold wash solution (1 mM NaOH, 100 mM NaCl) and dried for 30 min to 1 hour at 65±10° C. or overnight at room temperature. The bottoms of plates were sealed with clear tapes (Millipore Co-operation, Billerica, Mass.) and 50±10 μL of scintillation cocktail (Perkin Elmer Waltham, Mass.) was added. The plates were top sealed and radioactivity was measured with scintillation counter.

Sequence of Human PDE4 (PDE4B2 truncated) (Q07343 212-659 limits assumed): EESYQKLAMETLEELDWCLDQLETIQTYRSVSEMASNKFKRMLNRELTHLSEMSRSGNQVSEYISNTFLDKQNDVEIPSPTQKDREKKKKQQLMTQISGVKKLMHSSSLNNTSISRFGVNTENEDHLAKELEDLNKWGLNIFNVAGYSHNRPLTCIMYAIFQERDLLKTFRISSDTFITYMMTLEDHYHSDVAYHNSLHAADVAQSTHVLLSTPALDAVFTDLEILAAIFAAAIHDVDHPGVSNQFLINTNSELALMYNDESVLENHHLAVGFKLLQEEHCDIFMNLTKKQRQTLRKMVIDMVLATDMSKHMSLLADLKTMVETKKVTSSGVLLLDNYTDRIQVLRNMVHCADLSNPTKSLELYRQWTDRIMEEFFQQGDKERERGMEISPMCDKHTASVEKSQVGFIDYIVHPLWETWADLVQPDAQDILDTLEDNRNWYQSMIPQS

Row | IC50 [µM] | Structure (SMILES)
1 | 3.09 | N#Cc1ccc(C(O)c2ccc3c(c2)COB3O)cc1 (stereo not drawn) [B, 4-(hydroxy(1-hydroxy-1,3-dihydrobenzo[c][1,2]oxaborol-5-yl)methyl)benzonitrile]
2 | 0.047 | N#Cc1ccc([S+]([O-])c2ccc3c(c2)COB3O)cc1 (stereo not drawn) [D, 4-(1-hydroxy-1,3-dihydrobenzo[c][1,2]oxaborol-5-ylsulfinyl)benzonitrile]
3 | 0.427 | N#Cc1ccc(C(=O)c2ccc3c(c2)COB3O)cc1 [A, 4-(1-hydroxy-1,3-dihydrobenzo[c][1,2]oxaborole-5-carbonyl)benzonitrile]
